Measurements reported in ChEMBL document CHEMBL6103583, “Purified Monascus Pigments: Biological Activities and Mechanisms of Action” (J Nat Prod, 2025).
Converted amounts (≈) assume the structure as drawn.

Key:
RAW264.7 [1] = assay: Antiinflammatory activity against mouse RAW264.7 cells assessed as inhibition of LPS-NO production incubated for 24 hrs by Griess reagent based assay; assay type: functional, cell-based; settings: RAW264.7, 24 h
WiDr [2] = assay: Antiproliferative activity against human WiDr cells assessed as reduction in cell viability incubated for 72 hrs by MTT assay; assay type: functional, cell-based
HEp-2 [3] = assay: Antiproliferative activity against human HEp-2 cells assessed as reduction in cell viability incubated for 72 hrs by MTT assay; assay type: functional, cell-based; settings: HEp-2, 72 h
HT-29 = assay: Antiproliferative activity against human HT-29 cells assessed as reduction in cell viability incubated for 24 hrs by MTT assay; assay type: functional, cell-based; settings: HT-29, 24 h
MKN-45 = assay: Antiproliferative activity against human MKN-45 cells assessed as reduction in cell viability incubated for 24 hrs by MTT assay; assay type: functional, cell-based; settings: MKN-45, 24 h
BGC-823 = assay: Antiproliferative activity against human BGC-823 cells assessed as reduction in cell viability incubated for 24 hrs by MTT assay; assay type: functional, cell-based; settings: BGC-823, 24 h
HeLa [4] = assay: Antiproliferative activity against human HeLa cells assessed as reduction in cell viability incubated for 24 hrs under light irradiation by MTT assay; assay type: functional, cell-based; settings: light or radiation study
HeLa [5] = assay: Antiproliferative activity against human HeLa cells assessed as reduction in cell viability incubated for 24 hrs by MTT assay; assay type: functional, cell-based
HepG2 = assay: Antiproliferative activity against human HepG2 cells assessed as reduction in cell viability incubated for 24 hrs by MTT assay; assay type: functional, cell-based; settings: HepG2, 24 h
AGS = assay: Antiproliferative activity against human AGS cells assessed as reduction in cell viability incubated for 24 hrs by MTT assay; assay type: functional, cell-based
SH-SY5Y = assay: Antiproliferative activity against human SH-SY5Y cells assessed as reduction in cell viability incubated for 24 hrs by MTT assay; assay type: functional, cell-based
Escherichia coli [6] = assay: Antibacterial activity against Escherichia coli KCCM 11234 assessed as reduction in bacterial growth incubated for 12 hrs by broth micro-dilution method; assay type: functional
Enterococcus faecalis = assay: Antibacterial activity against Enterococcus faecalis KCCM 11814 assessed as reduction in bacterial growth incubated for 12 hrs by broth micro-dilution method; assay type: functional
Pseudomonas aeruginosa = assay: Antibacterial activity against Pseudomonas aeruginosa KCCM 11328 assessed as reduction in bacterial growth incubated for 12 hrs by micro-dilution method; assay type: functional
Proteus vulgaris = assay: Antibacterial activity against Proteus vulgaris KCCM 11906 assessed as reduction in bacterial growth incubated for 12 hrs by broth micro-dilution method; assay type: functional
Candida albicans = assay: Antifungal activity against Candida albicans KCCM 10231 assessed as reduction in […] incubated for 12 hrs by micro-dilution method; assay type: functional
Penicillium digitatum = assay: Antifungal activity against Penicillium digitatum KCCM 60140 assessed as reduction in […] incubated for 12 hrs by micro-dilution method; assay type: functional
Staphylococcus aureus [7] = assay: Antibacterial activity against Staphylococcus aureus KCCM 11817 assessed as reduction in bacterial growth incubated for 12 hrs by broth micro-dilution method; assay type: functional
Staphylococcus aureus [8] = assay: Antibacterial activity against Staphylococcus aureus […] assessed as reduction in bacterial growth incubated for 12 hrs by broth micro-dilution method; assay type: functional
Bacillus subtilis = assay: Antibacterial activity against Bacillus subtilis KCCM 11316 assessed as reduction in bacterial growth incubated for 12 hrs by broth micro-dilution method; assay type: functional
Haemophilus influenzae = assay: Antibacterial activity against Haemophilus influenzae KCCM 11903 assessed as reduction in bacterial growth incubated for 12 hrs by broth micro-dilution method; assay type: functional
Aspergillus niger = assay: Antifungal activity against Aspergillus niger KCCM 11239 assessed as reduction in […] incubated for 12 hrs by micro-dilution method; assay type: functional
[9] = Antibacterial activity against Salmonella choleraesuis KCCM 11806 assessed as reduction in bacterial growth; assay type: functional, Salmonella enterica subsp. enterica serovar Choleraesuis; settings: Salmonella enterica
Salmonella typhimurium = assay: Antibacterial activity against Salmonella Typhimurium KCCM 11806 assessed as reduction in bacterial growth incubated for 12 hrs by micro-dilution method; assay type: functional, Salmonella enterica subsp. enterica serovar Typhimurium; settings: Salmonella enterica
Penicillium citrinum = assay: Antifungal activity against Penicillium citrinum KCCM 11663 assessed as reduction in […] incubated for 12 hrs by micro-dilution method; assay type: functional
Shigella sonnei = assay: Antibacterial activity against Shigella sonnei KCCM 40253 assessed as reduction in bacterial growth incubated for 12 hrs by micro-dilution method; assay type: functional
Klebsiella aerogenes = assay: Antibacterial activity against Enterobacter aerogenes KCCM 12177 assessed as reduction in bacterial growth incubated for 12 hrs by broth micro-dilution method; assay type: functional
Escherichia coli [10] = assay: Antibacterial activity against Escherichia coli KCCM 11234 assessed as reduction in bacterial growth incubated; assay type: functional
WiDr [11] = assay: Antiproliferative activity against human WiDr cells assessed as reduction in cell growth incubated for 3 days by MTT assay; assay type: functional, cell-based; settings: 72 h
RAW264.7 [12] = assay: Antiinflammatory activity against mouse RAW264.7 cells assessed as inhibition of LPS-NO production by Griess reagent based assay; assay type: functional, cell-based
HEp-2 [13] = assay: Antiproliferative activity against human HEp-2 cells assessed as reduction in cell growth incubated for 3 days by MTT assay; assay type: functional, cell-based; settings: HEp-2, 72 h
PC-3 = assay: Antiproliferative activity against human PC-3 cells assessed as reduction in cell viability incubated for 48 hrs by MTT assay; assay type: functional, cell-based; settings: PC-3, 48 h
LNCaP = assay: Antiproliferative activity against human LNCaP cells assessed as reduction in cell viability incubated for 48 hrs by MTT assay; assay type: functional, cell-based

`CCCCCCCCCC(=O)[C@H]1C(=O)O[C@]2(C)C(=O)C=C3C=C(CC(C)OC(C)=O)OC=C3[C@H]12` (stereo partly specified) showed an IC50 (RAW264.7 [1]) of 16.6 µM.
In the case of `C/C=C/C1=CC2=CC3=C(C(=O)CCCCC)C(=O)O[C@@]3(C)C(=O)C2=CO1`, the IC50 (WiDr [2]) is reported as 109 µM, the IC50 (HEp-2 [3]) is reported as 107 µM and the IC50 (HT-29) is reported as 36.7 µM. It also gave an IC50 (MKN-45) of 14.3 µM, an IC50 (RAW264.7 [1]) of 21.2 µM and an IC50 (BGC-823) of 12.6 µM. The IC50 (HeLa [4]) was 24 µM, the IC50 (HeLa [5]) was 93.7 µM and the IC50 (HepG2) was 44.2 µM. It also gave an IC50 (AGS) of 7.98 µM and an IC50 (SH-SY5Y) of 30.9 µM.
`N[C@@H](CS)C(=O)O` [CYSTEINE] showed an MIC (Escherichia coli [6]) of 64 µg/mL (≈ 528 µM), an MIC (Enterococcus faecalis) of 4 µg/mL (≈ 33 µM) and an MIC (Pseudomonas aeruginosa) of 16 µg/mL (≈ 132 µM). For the same compound, the MIC (Proteus vulgaris) was 8 µg/mL (≈ 66 µM), the MIC (Candida albicans) was 16 µg/mL (≈ 132 µM) and the MIC (Penicillium digitatum) was 32 µg/mL (≈ 264 µM). For the same compound, the MIC (Staphylococcus aureus [7]) was 16 µg/mL (≈ 132 µM), the MIC (Staphylococcus aureus [8]) was 16 µg/mL (≈ 132 µM) and the MIC (Bacillus subtilis) was 32 µg/mL (≈ 264 µM). It also gave an MIC (Haemophilus influenzae) of 8 µg/mL (≈ 66 µM), an MIC (Aspergillus niger) of 8 µg/mL (≈ 66 µM) and an MIC [9] of 16 µg/mL (≈ 132 µM). It also gave an MIC (Salmonella typhimurium) of 8 µg/mL (≈ 66 µM), an MIC (Penicillium citrinum) of 32 µg/mL (≈ 264 µM) and an MIC (Shigella sonnei) of 16 µg/mL (≈ 132 µM). The MIC (Klebsiella aerogenes) was 8 µg/mL (≈ 66 µM) and the MIC (Escherichia coli [10]) was 64 µg/mL (≈ 528 µM).
Work on `C/C=C/C1=CC2=CC3=C(C(=O)CCCCC)C(=O)O[C@@]3(C)[C@@](O)(CC(C)=O)C2=CO1` yielded an IC50 (WiDr [2]) of 10.5 µM, an IC50 (HEp-2 [3]) of 10.4 µM and an IC50 (RAW264.7 [1]) of 1.7 µM.
With `C/C=C/C1=CC2=C(CO1)C(=O)[C@](C)(O)[C@@H](CC(=O)CCCCCCC)C2` the IC50 (WiDr [11]) was 55.8 µM, the IC50 (RAW264.7 [12]) was 19.7 µM and the IC50 (HEp-2 [13]) was 21 µM.
`N[C@@H](Cc1ccc(O)cc1)C(=O)O` [TYROSINE] showed an MIC (Enterococcus faecalis) of 8 µg/mL (≈ 44.2 µM), an MIC (Pseudomonas aeruginosa) of 8 µg/mL (≈ 44.2 µM) and an MIC (Proteus vulgaris) of 32 µg/mL (≈ 177 µM). The MIC (Candida albicans) was 8 µg/mL (≈ 44.2 µM), the MIC (Penicillium digitatum) was 32 µg/mL (≈ 177 µM) and the MIC (Staphylococcus aureus [7]) was 8 µg/mL (≈ 44.2 µM). It also gave an MIC (Staphylococcus aureus [8]) of 8 µg/mL (≈ 44.2 µM), an MIC (Bacillus subtilis) of 4 µg/mL (≈ 22.1 µM) and an MIC (Haemophilus influenzae) of 32 µg/mL (≈ 177 µM). For the same compound, the MIC (Aspergillus niger) was 4 µg/mL (≈ 22.1 µM), the MIC [9] was 8 µg/mL (≈ 44.2 µM) and the MIC (Salmonella typhimurium) was 16 µg/mL (≈ 88.3 µM). For the same compound, the MIC (Penicillium citrinum) was 8 µg/mL (≈ 44.2 µM), the MIC (Shigella sonnei) was 32 µg/mL (≈ 177 µM) and the MIC (Klebsiella aerogenes) was 4 µg/mL (≈ 22.1 µM).
`C/C=C/C1=CC2=C(CO1)C(=O)[C@]1(C)OC(=O)[C@H](C(O)CCCCC)[C@H]1C2` (stereo partly specified) showed an IC50 (PC-3) of 47 µM and an IC50 (LNCaP) of 45 µM.
`C/C=C/c1cc2c(cn1)C(=O)[C@](C)(O)[C@@H](CC(=O)CCCCCCC)C2` gave an IC50 (RAW264.7 [1]) of 74.7 µM.
`CCCCCC(=O)C[C@@H]1CC(CC(=O)CCC)=C(C)C(=O)[C@]1(C)O` gave an IC50 (WiDr [11]) of 142 µM and an IC50 (HEp-2 [13]) of 124 µM.
In the case of `C/C=C/C1=CC2=CC3=C(C(=O)CCCCCCC)C(=O)O[C@@]3(C)[C@@](O)(CC(C)=O)C2=CO1`, the IC50 (WiDr [2]) is reported as 11 µM, the IC50 (HEp-2 [3]) is reported as 8.7 µM and the IC50 (RAW264.7 [1]) is reported as 2.72 µM.
`C/C=C/C1=CC2=CC3=C(C(=O)CCCCC)C(=O)O[C@@]3(C)[C@@H](O)C2=CO1` gave an IC50 (WiDr [2]) of 15.7 µM, an IC50 (HEp-2 [3]) of 14.8 µM and an IC50 (RAW264.7 [1]) of 3.65 µM.
